One block for each compound: values may come before it.
How the values were obtained:
[1] = Stability of the compound in PBS buffer at pH 7.2 assessed as half life at 25 degreeC by HPLC analysis; assay type: physicochemical
[2] = Stability in human plasma assessed as half life at 37 degreeC by LC-MS/MS analysis; assay type: ADME, cell-free
[3] = Aqueous solubility of compound; assay type: physicochemical; details: buffer
[4] = tested on: HepG2; assay: Cytotoxicity against human HepG2 cells assessed as maximum cytolysis at 100 uM by Maestro Z Impedance Assay relative to control; assay type: toxicity, cell-based; details: hepg2, 100 µM
[5] = Cytotoxicity against human HepG2 cells by Maestro Z Impedance Assay; assay type: toxicity, cell-based
[6] = Stability of the compound in PBS buffer at pH 7.2 assessed as half life in the presence of MeCN by HPLC analysis; assay type: physicochemical
[7] = AUC (0-last) in Sprague-Dawley rat at 10 mg/kg, IM measured for 0.25 to 10 hrs by LC-MS/MS analysis; assay type: ADME, organism-based; set-up: time upper 10 hrs, dose 10 mg/kg, time lower 0.25 hrs, route im; details: in vivo
[8] = Cmax in Sprague-Dawley rat assessed as cmax of parent compound at 2 mg/kg,iv measured for 0.08 to 10 hrs by LC-MS/MS analysis; assay type: ADME, organism-based; set-up: dose 2 mg/kg, time 0.08-10 hrs, route iv; details: in vivo
[9] = Cmax in Sprague-Dawley rat assessed as cmax of parent compound at 10 mg/kg,IM measured for 0.25 to 10 hrs by LC-MS/MS analysis; assay type: ADME, organism-based; set-up: time upper 10 hrs, time lower 0.25 hrs, dose 10 mg/kg, route im; details: in vivo
[10] = Cmax in Sprague-Dawley rat at 2 mg/kg,iv measured for 0.08 to 10 hrs by LC-MS/MS analysis; assay type: ADME, organism-based; set-up: dose 2 mg/kg, time 0.08-10 hrs, route iv; details: in vivo
[11] = AUC (0-last) in Sprague-Dawley rat assessed as AUC (0-last) of parent compound at 2 mg/kg,iv measured for 0.08 to 10 hrs by LC-MS/MS analysis; assay type: ADME, organism-based; set-up: dose 2 mg/kg, time upper 10 hrs, time lower 0.08 hrs, route iv; details: in vivo
[12] = Cmax in Sprague-Dawley rat at 10 mg/kg,im measured for 0.25 to 10 hrs by LC-MS/MS analysis; assay type: ADME, organism-based; set-up: time lower 0.25 hrs, dose 10 mg/kg, time upper 10 hrs, route im; details: in vivo
[13] = AUC (0-last) in Sprague-Dawley rat assessed as AUC (0-last) of parent compound at 10 mg/kg,IM measured for 0.25 to 10 hrs by LC-MS/MS analysis; assay type: ADME, organism-based; set-up: time 0.25-10 hrs, dose 10 mg/kg, route im; details: in vivo
[14] = AUC (0-last) in Sprague-Dawley rat at 2 mg/kg,iv measured for 0.08 to 10 hrs by LC-MS/MS analysis; assay type: ADME, organism-based; set-up: dose 2 mg/kg, time 0.08-10 hrs, route iv; details: in vivo
[15] = Stability of the compound in PBS buffer at pH 7.2 assessed as half life at 37 degreeC by LC-MS/MS analysis; assay type: physicochemical
[16] = Stability of the compound in 0.1 M HCl; assay type: physicochemical
[17] = Stability of the compound in 1 M NaCl; assay type: physicochemical
[18] = Stability of the compound at pH 3; assay type: physicochemical; details: buffer
[19] = Stability of the compound in PBS buffer at 37 degreeC; assay type: physicochemical
[20] = Stability of the compound in 0.15 M NaCl; assay type: physicochemical
[21] = Stability of the compound in PBS buffer at 4 degreeC; assay type: physicochemical
[22] = tested on: Rattus norvegicus; assay: Neuroprotective activity against Sprague-Dawley rat model of traumatic brain injury assessed as reduction in cerebral edema at 10 mg/kg, IM administered for 1 to 6 hrs measured after 24 hrs relative to control; assay type: functional; set-up: scale not given: the % may be the effect or the level left; details: time 25-30 hrs
[23] = Solubility of compound in normal saline; assay type: physicochemical
[24] = Stability of the compound at pH 5; assay type: physicochemical; details: buffer

Structure (SMILES): CNCCN(C)C(=O)O/N=C(\C)[C@H]1CC[C@H]2[C@@H]3CCC4=CC(=O)CC[C@]4(C)[C@H]3CC[C@]12C.Cl
half-life [1]: 46.9 h | half-life [2]: 2.7 h

Structure (SMILES): C/C(=N\OC(=O)NC[C@@H]1CCCN1)[C@H]1CC[C@H]2[C@@H]3CCC4=CC(=O)CC[C@]4(C)[C@H]3CC[C@]12C.Cl
half-life [1]: > 240 h | half-life [2]: > 4 h

Structure (SMILES): C/C(=N\OC(=O)N(C)CCNCCO)[C@H]1CC[C@H]2[C@@H]3CCC4=CC(=O)CC[C@]4(C)[C@H]3CC[C@]12C.Cl
half-life [1]: 30.4 h | half-life [2]: 2.8 h

Structure (SMILES): C/C(=N\OC(=O)N1CCC[C@H]1CN)[C@H]1CC[C@H]2[C@@H]3CCC4=CC(=O)CC[C@]4(C)[C@H]3CC[C@]12C.Cl
half-life [1]: > 240 h | half-life [2]: > 4 h

Structure (SMILES): C/C(=N\OC(=O)[C@@H](N)C(C)C)[C@H]1CC[C@H]2[C@@H]3CCC4=CC(=O)CC[C@]4(C)[C@H]3CC[C@]12C.Cl
half-life [1]: 11 h | solubility [3]: 146 µM

Structure (SMILES): CN1C[C@@H]2CCCN2C1=O
Activity [4]: 30% | CC50 [5]: > 100 µM

Structure (SMILES): C/C(=N\OC(=O)N(C)CCNCCOC(F)(F)F)[C@H]1CC[C@H]2[C@@H]3CCC4=CC(=O)CC[C@]4(C)[C@H]3CC[C@]12C.Cl
half-life [6]: 28.5 h | solubility [3]: < 1 mg/mL | half-life [2]: 1.7 h

Structure (SMILES): C/C(=N\OC(=O)NCCN(C)C)[C@H]1CC[C@H]2[C@@H]3CCC4=CC(=O)CC[C@]4(C)[C@H]3CC[C@]12C.Cl
half-life [1]: > 240 h | half-life [2]: > 3.5 h

Structure (SMILES): C/C(=N\OC(=O)NC[C@@H]1CCCCN1)[C@H]1CC[C@H]2[C@@H]3CCC4=CC(=O)CC[C@]4(C)[C@H]3CC[C@]12C.Cl
half-life [1]: > 240 h

Structure (SMILES): C/C(=N\OC(=O)NCCN)[C@H]1CC[C@H]2[C@@H]3CCC4=CC(=O)CC[C@]4(C)[C@H]3CC[C@]12C.Cl
half-life [1]: > 240 h | half-life [2]: > 2 h

Structure (SMILES): C/C(=N\OC(=O)OCCN(C)C)[C@H]1CC[C@H]2[C@@H]3CCC4=CC(=O)CC[C@]4(C)[C@H]3CC[C@]12C.Cl
half-life [1]: 3.5 h | half-life [2]: 7.2 h

Structure (SMILES): CC(=O)[C@H]1CC[C@H]2[C@@H]3CCC4=C/C(=N/OC(=O)[C@@H](N)C(C)C)CC[C@]4(C)[C@H]3CC[C@]12C.Cl
half-life [1]: 10 h | solubility [3]: 172 µM

Structure (SMILES): C/C(=N\OCOP(=O)([O-])[O-])[C@H]1CC[C@H]2[C@@H]3CCC4=CC(=O)CC[C@]4(C)[C@H]3CC[C@]12C.[Na+].[Na+]
AUC(0-t) [7]: 724 ng·h/mL | solubility [3]: > 150 mg/mL | Cmax [8]: 219 ng/mL | Cmax [9]: 425 ng/mL | Cmax [10]: 182 ng/mL | AUClast [11]: 48 ng·h/mL | Cmax [12]: 1360 ng/mL | AUClast [13]: 753 ng·h/mL | AUC(0-t) [14]: 22 ng·h/mL

Structure (SMILES): C/C(=N\OC(=O)N(C)C[C@@H]1CCCCN1)[C@H]1CC[C@H]2[C@@H]3CCC4=CC(=O)CC[C@]4(C)[C@H]3CC[C@]12C.Cl
half-life [1]: > 240 h

Structure (SMILES): CNCC(C)(C)CN(C)C(=O)O/N=C(\C)[C@H]1CC[C@H]2[C@@H]3CCC4=CC(=O)CC[C@]4(C)[C@H]3CC[C@]12C.Cl
half-life [1]: > 240 h | half-life [2]: > 4 h

Structure (SMILES): CNC[C@@H]1CCCN1C(=O)O/N=C(\C)[C@H]1CC[C@H]2[C@@H]3CCC4=CC(=O)CC[C@]4(C)[C@H]3CC[C@]12C.Cl
half-life [1]: > 240 h | half-life [2]: > 4 h

half-life [2]: 0.9 h | half-life [15]: > 2 h
Structure (SMILES): C/C(=N\OC(=O)N(C)C[C@@H]1CCCN1C)[C@H]1CC[C@H]2[C@@H]3CCC4=CC(=O)CC[C@]4(C)[C@H]3CC[C@]12C.Cl

Structure (SMILES): CNCCN(CCO)C(=O)O/N=C(\C)[C@H]1CC[C@H]2[C@@H]3CCC4=CC(=O)CC[C@]4(C)[C@H]3CC[C@]12C.Cl
half-life [1]: 24.8 h | half-life [2]: 1.6 h

Structure (SMILES): C/C(=N\OC(=O)N(C)C[C@@H]1CCCN1)[C@H]1CC[C@H]2[C@@H]3CCC4=CC(=O)CC[C@]4(C)[C@H]3CC[C@]12C.Cl
half-life [16]: 1.3 h | half-life [17]: 168 h | half-life [1]: 1.9 h | half-life [18]: 192 h | half-life [19]: 1 h | AUC(0-t) [7]: 288 ng·h/mL | half-life [20]: > 240 h | half-life [21]: 74.4 h | Cmax [8]: 328 ng/mL | Activity [22]: 40% | solubility [23]: > 50 mg/mL | half-life [24]: 175 h | Cmax [9]: 954 ng/mL | Cmax [10]: 122 ng/mL | AUClast [11]: 176 ng·h/mL | Cmax [12]: 224 ng/mL | half-life [15]: 1.9 h | AUClast [13]: 1304 ng·h/mL | AUC(0-t) [14]: 62.9 ng·h/mL

Structure (SMILES): CNCCCN(C)C(=O)O/N=C(\C)[C@H]1CC[C@H]2[C@@H]3CCC4=CC(=O)CC[C@]4(C)[C@H]3CC[C@]12C.Cl
half-life [1]: > 240 h | half-life [2]: > 4 h

Structure (SMILES): C/C(=N\OC(=O)N(C)CCNCCF)[C@H]1CC[C@H]2[C@@H]3CCC4=CC(=O)CC[C@]4(C)[C@H]3CC[C@]12C.Cl
half-life [1]: 36.1 h | half-life [2]: 2.2 h

Structure (SMILES): C/C(=N\OC(=O)OCCN)[C@H]1CC[C@H]2[C@@H]3CCC4=CC(=O)CC[C@]4(C)[C@H]3CC[C@]12C.Cl
half-life [1]: 0.11 h

Structure (SMILES): C/C(=N\OC(=O)OC[C@@H]1CCCN1)[C@H]1CC[C@H]2[C@@H]3CCC4=CC(=O)CC[C@]4(C)[C@H]3CC[C@]12C.Cl
half-life [1]: 0.09 h

From ChEMBL document CHEMBL5338742, “Neurotherapeutic Potential of Water-Soluble pH-Responsive Prodrugs of EIDD-036 in Traumatic Brain Injury” (J Med Chem, 2023)
